Reference: ChEMBL document CHEMBL3612010, “Deprotometalation-iodolysis and computed CH acidity of 1,2,3- and 1,2,4-triazoles. Application to the synthesis of resveratrol analogues” (Bioorg Med Chem, 2015)
Values after ≈ are worked out from the molar mass of the structure shown. Each block holds one compound with its values, some of them ahead of it.

Assays:
Escherichia coli = experiment: Antibacterial activity against Escherichia coli ATCC 25922 after 24 hrs by broth microdilution method; format: functional; conditions: ATCC 25922, 24 h
Staphylococcus aureus [1] = experiment: Antibacterial activity against Staphylococcus aureus ATCC 25923 after 24 hrs by broth microdilution method; format: functional; conditions: ATCC 25923, 24 h
Staphylococcus aureus [2] = experiment: Antibacterial activity against Staphylococcus aureus ATCC 29213 after 24 hrs by broth microdilution method; format: functional; conditions: ATCC 29213, 24 h
Pseudomonas aeruginosa = experiment: Antibacterial activity against Pseudomonas aeruginosa […] after 24 hrs by broth microdilution method; format: functional
MDA-MB-231 [3] = experiment: Antiproliferative activity against human MDA-MB-231 cells assessed as cell survival at 100 uM after 24 hrs by MTT assay relative to control; format: functional; conditions: MDA-MB-231, 24 h, read-out: Survival
Enterococcus faecalis = experiment: Antibacterial activity against Enterococcus faecalis ATCC 29212 after 24 hrs by broth microdilution method; format: functional; conditions: ATCC 29212, 24 h
MDA-MB-231 [4] = experiment: Antiproliferative activity against human MDA-MB-231 cells assessed as cell survival at 100 uM after 48 hrs by MTT assay relative to control; format: functional; conditions: MDA-MB-231, 48 h, read-out: Survival
MDA-MB-231 [5] = experiment: Antiproliferative activity human MDA-MB-231 cells assessed as cell survival after 48 hrs by MTT assay; format: functional, cell-based; conditions: MDA-MB-231, 48 h
MDA-MB-231 [6] = experiment: Antiproliferative activity against human MDA-MB-231 cells assessed as cell survival at 25 uM after 48 hrs by MTT assay relative to control; format: functional; conditions: MDA-MB-231, 48 h, read-out: Survival

Compound: c1ccc(-c2cnn(-c3ccccc3)n2)cc1
MIC (Escherichia coli): 128 µg/mL (≈ 578 µM)
MIC (Staphylococcus aureus [1]): 256 µg/mL (≈ 1160 µM)
MIC (Staphylococcus aureus [2]): > 256 µg/mL
MIC (Pseudomonas aeruginosa): 128 µg/mL (≈ 578 µM)
viability at 100 µM (MDA-MB-231 [3]): 85.5%
MIC (Enterococcus faecalis): 128 µg/mL (≈ 578 µM)

Compound: COc1ccc(OC)c(-c2cnn(-c3ccccc3)n2)c1
MIC (Escherichia coli): 128 µg/mL (≈ 455 µM)
MIC (Staphylococcus aureus [1]): 256 µg/mL (≈ 910 µM)
MIC (Staphylococcus aureus [2]): 128 µg/mL (≈ 455 µM)
MIC (Pseudomonas aeruginosa): 128 µg/mL (≈ 455 µM)
viability at 100 µM (MDA-MB-231 [3]): 94%
MIC (Enterococcus faecalis): 128 µg/mL (≈ 455 µM)

Compound: Oc1ccc(-c2cnn(-c3ccccc3)n2)cc1
MIC (Escherichia coli): 128 µg/mL (≈ 539 µM)
MIC (Staphylococcus aureus [1]): 128 µg/mL (≈ 539 µM)
MIC (Staphylococcus aureus [2]): 64 µg/mL (≈ 270 µM)
MIC (Pseudomonas aeruginosa): 128 µg/mL (≈ 539 µM)
viability at 100 µM (MDA-MB-231 [3]): 102%
MIC (Enterococcus faecalis): 64 µg/mL (≈ 270 µM)

Compound: Nc1ccc(-c2cnn(-c3ccccc3)n2)cc1
MIC (Escherichia coli): 128 µg/mL (≈ 542 µM)
MIC (Staphylococcus aureus [1]): 256 µg/mL (≈ 1080 µM)
MIC (Staphylococcus aureus [2]): 256 µg/mL (≈ 1080 µM)
MIC (Pseudomonas aeruginosa): 64 µg/mL (≈ 271 µM)
viability at 100 µM (MDA-MB-231 [3]): 66%
MIC (Enterococcus faecalis): 128 µg/mL (≈ 542 µM)

Compound: c1ccc(-c2cnn(-c3ccccc3-c3ccccc3)n2)cc1
viability at 100 µM (MDA-MB-231 [4]): 23%
MIC (Escherichia coli): 256 µg/mL (≈ 861 µM)
MIC (Staphylococcus aureus [1]): 256 µg/mL (≈ 861 µM)
MIC (Staphylococcus aureus [2]): 128 µg/mL (≈ 430 µM)
MIC (Pseudomonas aeruginosa): 128 µg/mL (≈ 430 µM)
viability at 100 µM (MDA-MB-231 [3]): 49%
MIC (Enterococcus faecalis): 128 µg/mL (≈ 430 µM)
IC50 (MDA-MB-231 [5]): 52 µM

Compound: COc1ccc(-c2cnn(-c3ccccc3-c3ccc(OC)cc3)n2)cc1
MIC (Escherichia coli): 256 µg/mL (≈ 716 µM)
MIC (Staphylococcus aureus [1]): 256 µg/mL (≈ 716 µM)
MIC (Staphylococcus aureus [2]): 256 µg/mL (≈ 716 µM)
MIC (Pseudomonas aeruginosa): 256 µg/mL (≈ 716 µM)
viability at 100 µM (MDA-MB-231 [3]): 75%
MIC (Enterococcus faecalis): 256 µg/mL (≈ 716 µM)

Compound: Oc1ccc(-c2cnn(-c3ccccc3-c3ccc(O)cc3)n2)cc1
viability at 100 µM (MDA-MB-231 [4]): 11%
MIC (Escherichia coli): 128 µg/mL (≈ 389 µM)
MIC (Staphylococcus aureus [1]): 128 µg/mL (≈ 389 µM)
MIC (Staphylococcus aureus [2]): 128 µg/mL (≈ 389 µM)
MIC (Pseudomonas aeruginosa): 64 µg/mL (≈ 194 µM)
viability at 100 µM (MDA-MB-231 [3]): 54.5%
MIC (Enterococcus faecalis): 128 µg/mL (≈ 389 µM)
IC50 (MDA-MB-231 [5]): 40 µM

Compound: Nc1ccc(-c2cnn(-c3ccccc3-c3ccc(N)cc3)n2)cc1
viability at 100 µM (MDA-MB-231 [4]): 2.5%
MIC (Escherichia coli): 128 µg/mL (≈ 391 µM)
MIC (Staphylococcus aureus [1]): 64 µg/mL (≈ 195 µM)
MIC (Staphylococcus aureus [2]): 128 µg/mL (≈ 391 µM)
MIC (Pseudomonas aeruginosa): 128 µg/mL (≈ 391 µM)
viability at 100 µM (MDA-MB-231 [3]): 44%
MIC (Enterococcus faecalis): 128 µg/mL (≈ 391 µM)
IC50 (MDA-MB-231 [5]): 17.5 µM
viability at 25 µM (MDA-MB-231 [6]): 22%

Compound: Clc1cccc(-c2cnn(-c3ccccc3-c3cccc(Cl)c3)n2)c1
viability at 100 µM (MDA-MB-231 [4]): 11%
MIC (Escherichia coli): 128 µg/mL (≈ 349 µM)
MIC (Staphylococcus aureus [1]): 128 µg/mL (≈ 349 µM)
MIC (Staphylococcus aureus [2]): 256 µg/mL (≈ 699 µM)
MIC (Pseudomonas aeruginosa): 128 µg/mL (≈ 349 µM)
viability at 100 µM (MDA-MB-231 [3]): 40.5%
MIC (Enterococcus faecalis): 256 µg/mL (≈ 699 µM)
IC50 (MDA-MB-231 [5]): 45.5 µM

Compound: FC(F)(F)Oc1ccc(-n2nccn2)cc1
viability at 100 µM (MDA-MB-231 [4]): 24%
MIC (Escherichia coli): 256 µg/mL (≈ 1120 µM)
MIC (Staphylococcus aureus [1]): 256 µg/mL (≈ 1120 µM)
MIC (Staphylococcus aureus [2]): 256 µg/mL (≈ 1120 µM)
MIC (Pseudomonas aeruginosa): 128 µg/mL (≈ 559 µM)
viability at 100 µM (MDA-MB-231 [3]): 58.5%
MIC (Enterococcus faecalis): 128 µg/mL (≈ 559 µM)
IC50 (MDA-MB-231 [5]): 67 µM

Compound: CC1(C)S[C@@H]2[C@H](NC(=O)[C@H](N)c3ccc(O)cc3)C(=O)N2[C@H]1C(=O)O [AMOXICILLIN]
MIC (Escherichia coli): 4 µg/mL (≈ 10.9 µM)

Compound: Cc1onc(-c2ccccc2)c1C(=O)N[C@@H]1C(=O)N2[C@@H]1SC(C)(C)[C@@H]2C(=O)O [OXACILLIN]
MIC (Staphylococcus aureus [1]): < 1 µg/mL
MIC (Staphylococcus aureus [2]): < 1 µg/mL

Compound: Oc1ccc(/C=C/c2cc(O)cc(O)c2)cc1 [RESVERATROL]
viability at 100 µM (MDA-MB-231 [4]): 60.3%
viability at 100 µM (MDA-MB-231 [3]): 93.4%
IC50 (MDA-MB-231 [5]): 130 µM

MIC (Pseudomonas aeruginosa): 8 µg/mL (≈ 20.8 µM)
Compound: CC1(C)S[C@@H]2[C@H](NC(=O)[C@H](C(=O)O)c3ccsc3)C(=O)N2[C@H]1C(=O)O [TICARCILLIN]

Compound: CN[C@H](CC(C)C)C(=O)N[C@H]1C(=O)N[C@@H](CC(N)=O)C(=O)N[C@H]2C(=O)N[C@H]3C(=O)N[C@H](C(=O)N[C@H](C(=O)O)c4cc(O)cc(O)c4-c4cc3ccc4O)[C@H](O)c3ccc(c(Cl)c3)Oc3cc2cc(c3O[C@@H]2O[C@H](CO)[C@@H](O)[C@H](O)[C@H]2O[C@H]2C[C@](C)(N)[C@H](O)[C@H](C)O2)Oc2ccc(cc2Cl)[C@H]1O [VANCOMYCIN]
MIC (Enterococcus faecalis): < 1 µg/mL
